According to patent US9045482B2, “Pyrido[4,3-B]indoles and methods of use” (Medivation Technologies, Inc., priority 2009, dated 2015):

Tests used:
[1] = biological target: human recombinant histamine H1 receptor (Homo sapiens, UniProt P35367); test: Histamine H1 radioligand binding ([3H]Pyrilamine); conditions: read-out: Binding data (Percentage Inhibition) Histamine Binding H1
Experimental: To evaluate in radioligand binding assays the activity of compounds of the invention, human recombinant histamine H1 receptor expressed in Chinese hamster ovary (CHO) cells [De Backer, M. et al., Biochem. Biophys. Res. Comm. (1993), 197(3):1601] in a modified Tris-HCl buffer (50 mM Tris-HCl, pH 7.4, 2 mM MgCl2, 100 mM NaCl, 250 mM Sucrose) was used. Compounds of the invention were incubated with 1.2 nM [^3H]Pyrilamine for 180 min at 25° C. Non-specific binding was estimated in the presence of 1 μM pyrilamine. Receptor proteins were filtered and washed, the filters were then counted to determine [^3H]Pyrilamine specifically bound. Compounds were screened at 1 μM or lower, using 1% DMSO as vehicle. Biochemical assay results are presented as the percent inhibition of specific binding in Table 2.

[2] = biological target: human recombinant dopamine D2L receptor (Homo sapiens, UniProt P14416); test: Dopamine D2L radioligand binding ([3H]Spiperone)
Chain of human recombinant dopamine D2L receptor (P14416 whole entry): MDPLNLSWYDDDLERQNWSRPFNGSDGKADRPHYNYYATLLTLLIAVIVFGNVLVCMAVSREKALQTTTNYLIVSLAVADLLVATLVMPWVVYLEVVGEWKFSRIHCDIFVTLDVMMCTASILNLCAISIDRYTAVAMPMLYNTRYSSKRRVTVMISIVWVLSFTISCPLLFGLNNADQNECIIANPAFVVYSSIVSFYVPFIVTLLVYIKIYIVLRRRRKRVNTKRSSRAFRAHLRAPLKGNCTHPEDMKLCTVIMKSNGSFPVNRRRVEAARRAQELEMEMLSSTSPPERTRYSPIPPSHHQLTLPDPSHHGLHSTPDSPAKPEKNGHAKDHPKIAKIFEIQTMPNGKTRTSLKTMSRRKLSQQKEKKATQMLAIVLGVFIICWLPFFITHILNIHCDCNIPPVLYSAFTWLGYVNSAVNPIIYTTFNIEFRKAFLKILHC
Experimental: To evaluate in radioligand binding assays the activity of compounds of the invention, human recombinant dopamine D2L receptor expressed in Chinese hamster ovary (CHO) cells [Grandy, D. K. et al., Proc. Natl. Acad. Sci. USA. (1989), 86:9762; Hayes, G. et al., Mol. Endocrinol. […] Compounds of the invention were incubated with 0.16 nM [^3H]Spiperone for 120 min at 25° C. Non-specific binding was estimated in the presence of 10 μM Haloperidol. Receptor proteins were filtered and washed, the filters were then counted to determine [^3H]Spiperone specifically bound. Compounds were screened at 1 μM or lower, using 1% DMSO as vehicle. Biochemical assay results are presented as the percent inhibition of specific binding in Table 3.

[3] = biological target: T1, human recombinant serotonin (5-Hydroxytryptamine) 5-HT2C receptor (Homo sapiens, UniProt P28335); test: Serotonin 5-HT2C radioligand binding ([3H]Mesulergine)
T1 construct: expressed in transfected cells; host or cells: Chinese hamster ovary (CHO-K1) cells
T1 sequence (P28335 33-458): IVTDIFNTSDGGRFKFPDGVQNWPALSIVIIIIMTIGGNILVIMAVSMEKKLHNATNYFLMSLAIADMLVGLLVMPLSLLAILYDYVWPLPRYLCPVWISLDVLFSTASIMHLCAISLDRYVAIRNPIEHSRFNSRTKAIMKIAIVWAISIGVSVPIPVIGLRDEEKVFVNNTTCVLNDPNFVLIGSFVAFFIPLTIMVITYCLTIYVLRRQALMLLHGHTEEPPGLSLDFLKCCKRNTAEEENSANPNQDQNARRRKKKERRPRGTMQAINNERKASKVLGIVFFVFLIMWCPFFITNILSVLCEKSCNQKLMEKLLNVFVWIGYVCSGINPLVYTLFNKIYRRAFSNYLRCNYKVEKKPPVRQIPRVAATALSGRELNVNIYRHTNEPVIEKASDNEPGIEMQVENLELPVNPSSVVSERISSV
Experimental: (1997), 69:1449] in a modified Tris-HCl buffer (50 mM Tris-HCl, pH 7.4, 0.1% Ascorbic Acid, 10 μM Pargyline) was used. Compounds of the invention were incubated with 1 nM [^3H]Mesulergine for 60 min at 25° C. Non-specific binding was estimated in the presence of 1 μM Mianserin. Receptor proteins were filtered and washed, the filters were then counted to determine [^3H]Mesulergine specifically bound. Compounds were screened at 1 μM or lower, using 1% DMSO as vehicle. Biochemical assay results are presented as the percent inhibition of specific binding in Table 4.

[4] = biological target: T2, human recombinant serotonin (5-Hydroxytryptamine) 5-HT6 receptor (Homo sapiens, UniProt P50406); test: Serotonin 5-HT6 radioligand binding ([3H]LSD)
T2 construct: expressed in transfected cells; host or cells: human HeLa cells
T2 sequence (P50406 whole entry): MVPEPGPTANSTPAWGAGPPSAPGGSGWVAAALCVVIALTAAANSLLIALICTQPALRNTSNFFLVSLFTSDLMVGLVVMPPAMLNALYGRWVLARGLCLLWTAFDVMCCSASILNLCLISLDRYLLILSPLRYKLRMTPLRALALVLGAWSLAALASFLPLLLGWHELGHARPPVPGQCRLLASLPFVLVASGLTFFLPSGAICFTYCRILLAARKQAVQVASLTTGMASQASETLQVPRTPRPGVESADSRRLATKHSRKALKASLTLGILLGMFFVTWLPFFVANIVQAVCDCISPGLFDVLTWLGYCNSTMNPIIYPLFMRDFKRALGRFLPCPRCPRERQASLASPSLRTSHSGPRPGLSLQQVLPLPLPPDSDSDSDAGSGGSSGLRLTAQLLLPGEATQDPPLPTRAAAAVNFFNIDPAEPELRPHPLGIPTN
Experimental: (§1) Compounds of the invention were incubated with 1.5 nM [3H]Lysergic acid diethylamide (LSD) for 120 min at 37° C. […] Receptor proteins were filtered and washed, the filters were then counted to determine [3H]LSD specifically bound. Compounds were screened at 1 μM or lower, using 1% DMSO as vehicle. Biochemical assay results are presented as the percent inhibition of specific binding in Table 4.

[5] = biological target: human recombinant serotonin (5-Hydroxytryptamine) 5-HT7 receptor (Homo sapiens, UniProt P34969); test: Serotonin 5-HT7 radioligand binding ([3H]LSD); conditions: 0.1 μM ligand concentration
Chain of human recombinant serotonin (5-Hydroxytryptamine) 5-HT7 receptor (P34969 whole entry): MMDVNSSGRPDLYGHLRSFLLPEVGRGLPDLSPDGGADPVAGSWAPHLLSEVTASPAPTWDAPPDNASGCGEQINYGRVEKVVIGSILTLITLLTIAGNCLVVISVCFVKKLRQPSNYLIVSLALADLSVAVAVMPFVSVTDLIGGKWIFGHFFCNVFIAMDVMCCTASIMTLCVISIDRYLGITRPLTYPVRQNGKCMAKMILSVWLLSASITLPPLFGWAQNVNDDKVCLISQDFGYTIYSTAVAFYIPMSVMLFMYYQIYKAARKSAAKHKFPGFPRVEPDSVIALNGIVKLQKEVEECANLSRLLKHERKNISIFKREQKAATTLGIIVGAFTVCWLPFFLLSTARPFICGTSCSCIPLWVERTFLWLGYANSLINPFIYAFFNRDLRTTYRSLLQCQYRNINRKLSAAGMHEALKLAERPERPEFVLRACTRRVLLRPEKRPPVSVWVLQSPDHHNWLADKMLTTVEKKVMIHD
Experimental: as §1, with “of” for “of the”, “5.5” for “1.5”, “[^3H]Lysergic” for “[3H]Lysergic”, “2 h” for “120 min”, “25°” for “37°”, “[^3H]LSD” for “[3H]LSD”

[6] = biological target: T3, rat adrenergic α1A receptor (Rattus norvegicus, UniProt P43140); test: Adrenergic α1A radioligand binding ([3H]Prozosin); set-up: species or system Wistar Rat; conditions: 0.1 μM ligand conc.
T3 construct: rat adrenergic α1A receptor obtained from Wistar Rat submaxillary glands; from tissue; host or cells: Wistar Rat submaxillary glands
T3 sequence (P43140 1-466): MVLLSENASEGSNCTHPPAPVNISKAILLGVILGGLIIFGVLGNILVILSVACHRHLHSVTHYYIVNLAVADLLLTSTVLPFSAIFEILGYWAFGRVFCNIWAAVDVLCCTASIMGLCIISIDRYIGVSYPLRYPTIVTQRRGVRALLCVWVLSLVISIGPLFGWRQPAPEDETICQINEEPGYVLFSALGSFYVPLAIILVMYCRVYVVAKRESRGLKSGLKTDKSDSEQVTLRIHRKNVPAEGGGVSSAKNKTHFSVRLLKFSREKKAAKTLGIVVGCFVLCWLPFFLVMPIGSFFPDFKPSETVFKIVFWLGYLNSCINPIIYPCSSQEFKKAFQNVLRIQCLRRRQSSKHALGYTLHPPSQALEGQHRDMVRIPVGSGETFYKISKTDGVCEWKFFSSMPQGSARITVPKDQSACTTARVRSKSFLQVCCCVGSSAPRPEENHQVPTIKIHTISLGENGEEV
Experimental: To evaluate in radioligand binding assays the activity of compounds of the invention, rat adrenergic α1A receptor obtained from Wistar Rat submaxillary glands [Michel, A. D. et al., Br. J. Pharmacol. (1989), 98:883] in a modified Tris-HCl buffer (50 mM Tris-HCl buffer, pH 7.4, 0.5 mM EDTA) was used. Compounds of the invention were incubated with 0.25 nM [^3H]Prozosin for 60 min at 25° C. Non-specific binding was estimated in the presence of 10 μM phentolamine. Receptor proteins were filtered and washed, the filters were then counted to determine [^3H]Prozosin specifically bound. Compounds of the invention were screened at 1 μM or lower, using 1% DMSO as vehicle. Compounds of the invention were tested in this biochemical assay. Biochemical assay results for representative compounds were presented as the percent inhibition of specific binding in Table 3.

Chain of human recombinant histamine H1 receptor (P35367 whole entry): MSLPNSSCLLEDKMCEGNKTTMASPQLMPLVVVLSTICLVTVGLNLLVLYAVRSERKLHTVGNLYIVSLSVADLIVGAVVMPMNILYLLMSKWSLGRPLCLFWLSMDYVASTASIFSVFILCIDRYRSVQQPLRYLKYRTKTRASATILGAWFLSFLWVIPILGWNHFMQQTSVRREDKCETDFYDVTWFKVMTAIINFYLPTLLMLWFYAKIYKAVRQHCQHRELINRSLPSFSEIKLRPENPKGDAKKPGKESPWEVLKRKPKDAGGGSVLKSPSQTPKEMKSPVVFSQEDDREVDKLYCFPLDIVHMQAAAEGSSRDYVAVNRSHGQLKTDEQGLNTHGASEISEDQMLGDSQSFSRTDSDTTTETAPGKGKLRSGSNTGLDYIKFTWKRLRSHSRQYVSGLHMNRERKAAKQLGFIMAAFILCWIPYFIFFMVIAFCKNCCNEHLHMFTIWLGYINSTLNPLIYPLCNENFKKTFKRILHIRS

Row | Compound | inhibition at 0.1 µM [1] [%] | Percent Inhibition of ligand binding Dopamine D2L ([2]; 0.1 μM ligand conc.) [%] | Percent Inhibition of ligand binding Serotonin 5-HT2C ([3]; 0.1 μM ligand concentration) [%] | Percent Inhibition of ligand binding Serotonin 5-HT6 ([4]; 0.1 μM ligand concentration) [%] | Percent Inhibition of ligand binding Serotonin 5-HT7 [5] [%] | Percent Inhibition of ligand binding Adrenergic α1A [6] [%] | inhibition at 1 µM [1] [%] | Percent Inhibition of ligand binding Dopamine D2L ([2]; 1 μM ligand conc.) [%] | Percent Inhibition of ligand binding Serotonin 5-HT2C ([3]; 1 μM ligand concentration) [%] | Percent Inhibition of ligand binding Serotonin 5-HT6 ([4]; 1 μM ligand concentration) [%]
1 | C/C(=C\n1c2c(c3cc(C)ccc31)C1CCCN1CC2)c1ccc(C)nc1 (centres unmarked) [Compound 32, (E)-10-methyl-7-(2-(6-methylpyridin-3-yl)prop-1-enyl)-2,3,5,6,7,11c-hexahydro-1H-indolizino[7,8-b]indole] | 1 | 3 | 26 | 25 | 61 | 55 |  |  |  | 
2 | Fc1ccc(CCn2c3c(c4cc(Cl)ccc42)C2CCCN2CC3)cc1 (centres unmarked) [Compound 1, 7-(4-fluorophenethyl)-10-chloro-2,3,5,6,7,11c-hexahydro-1H-indolizino[7,8-b]indole] |  |  |  |  |  |  | -2 | 9 | 44 | 19
3 | Cc1cnc2c(c1)c1c(n2CCc2ccc(C)nc2)CCN2CCCC12 (centres unmarked) [Compound 33, 10-methyl-7-(2-(6-methylpyridin-3-yl)ethyl)-2,3,5,6,7,1c-hexahydro-1H-pyrido[3′,2′:4,5]pyrrolo[2,3-g]indolizine] | 73 | 1 | 13 | 20 | 44 | 26 |  |  |  | 
4 | O=C(Cn1c2c(c3cccnc31)C1CCCN1CC2)N1CCCCC1 (centres unmarked) [Compound 38, 1-(piperidin-1-yl)-2-(2,3,5,6-tetrahydro-1H-pyrido[3′,2′:4,5]pyrrolo[2,3-g]indolizin-7(11cH)-yl)ethanone] | 5 | 24 | 16 | −8 | 23 | −6 |  |  |  | 
5 | O=C(Cn1c2c(c3cccnc31)CN1CCCC1C2)N1CCCCC1 (centres unmarked) [Compound 37, 1-(piperidin-1-yl)-2-(8,9,9a,10-tetrahydro-5H-pyrido[3′,2′:4,5]pyrrolo[3,2-f]indolizin-11(7H)-yl)ethanone] | 6 | −5 | 9 | −9 | 3 | −6 |  |  |  | 
6 | Cc1ccc(CCn2c3c(c4cccnc42)C2CCCN2CC3)cn1 (centres unmarked) [Compound 34, 7-(2-(6-methylpyridin-3-yl)ethyl)-2,3,5,6,7,1c-hexahydro-1H-pyrido[3′,2′:4,5]pyrrolo[2,3-g]indolizine] | 22 | 6 | 7 | 5 | 18 | −9 |  |  |  | 
7 | Cc1ccc(CCn2c3c(c4cccnc42)CN2CCCC2C3)cn1 (centres unmarked) [Compound 35, 11-(2-(6-methylpyridin-3-yl)ethyl)-7,8,9,9a,10,11-hexahydro-5H-pyrido[3′,2′:4,5]pyrrolo[3,2-f]indolizine] | 50 | −3 | 15 | −3 | 6 | −2 |  |  |  | 
8 | Cc1cnc2c(c1)c1c(n2CCc2ccc(C)nc2)CC2CCCN2C1 (centres unmarked) [Compound 36, 3-methyl-11-(2-(6-methylpyridin-3-yl)ethyl)-7,8,9,9a,10,11-hexahydro-5H-pyrido[3′,2′:4,5]pyrrolo[3,2-f]indolizine] | 96 | −3 | 19 | 34 | 23 | 26 |  |  |  | 
9 | Fc1ccc(CCn2c3c(c4cc(Cl)ccc42)CN2CCCC2C3)cc1 (centres unmarked) [Compound 2, 10-(4-fluorophenethyl)-7-chloro-2,3,5,10,11,11a-hexahydro-1H-indolizino[7,6-b]indole] |  |  |  |  |  |  | 9 | 13 | 53 | 19
